Assay results: patent US20090104119A1, “Dendrimer Based Compositions And Methods Of Using The Same” (priority 2004, published 2009)

Columns and labels:
[1] = tested on: KB cells; test: Inhibition of cell growth by XTT assay; assay type: cell-based, human
Procedure: Cell culture and treatment.
Evaluation of dendrimer cytotoxicity.
Because the binding of the conjugate to KB cells reaches maximal uptake within 1 h (Quintana et al, 2002. Pharmaceutical Research 19: 1310-1316.), the effect of the G5-FI-FA-MTX on cell growth was initially tested by pre-incubation of cells with the conjugate for 1 h, followed by incubation in a drug-free medium for 5 d. […] When the cells were pre-incubated with dendrimers for 4 h, there was a modest decrease of about 10% in cell growth as determined by XTT assay. The cytotoxicity measurements were therefore done by incubation with the dendrimer for a minimum of 24 h, a pre-incubation time period shown to induce significant cytotoxicity.
The inhibition of cell growth induced by the conjugates was also tested by XTT assay which is based on the conversion of XTT to formazan by the active mitochondria of live cells (See, e.g., Roehm et al, J Immunol Methods 142, 257 (1991)).
As free FA blocks the uptake of the dendrimers as well as rescues cells from MTX-induced cytotoxicity, the effect of pre-incubation of cells with excess FA on the anti-proliferative effect of G5-FITC-FA-MTX was tested. KB cells were exposed to different concentrations of the conjugate or free MTX for 24 h in the absence or presence of 50 μM FA. The incubation medium was removed, the cells were rinsed and incubated with fresh medium for 5 additional days in the absence of the drugs, and the XTT assay was performed (See, e.g., FIG. 24, □, ▪, represents cells treated with MTX; Δ, ▴, represents cells treated with G5-FITC-FA-MTX).
The anti-proliferative effect of the MTX-conjugates was compared to conjugates that lacked either the FA or the FITC molecule. KB cells were incubated with 30 nM of the conjugates (=150 nM effective MTX concentration) for 24 h and the incubation medium was removed. The cells were rinsed and incubated for an additional 5 d in fresh medium in the absence of the drugs, and the XTT assay was performed.

[2] = tested on: KB cells; test: Inhibition of cell growth by total cell protein
Procedure: Cell culture and treatment. KB cells were maintained in folate-free medium containing 10% serum (See, e.g., Quintana et al, Pharm. Res. 19, 1310 (2002)) to provide extracellular FA similar to that found in human serum. Cells were plated in 12-well plates for uptake studies, in 24-well plates for cell growth analysis, and in 96-well plates for XTT assay. Cells were rinsed with FA-free medium containing dialyzed serum and incubated at 37° C. with dendrimer-drug conjugates for the indicated time periods and concentrations. KB cells were also maintained in RPMI medium containing 2 μM FA to obtain cells which express low FAR.
Evaluation of dendrimer cytotoxicity. Cell growth was determined by assay of the total protein in lysates of treated cells using a bicinchoninic acid reagent (PIERCE, and by XTT assay, using a kit from Roche.
Time course and dose dependent inhibition of cell growth. Previous studies have shown that MTX-induced cytotoxicity is detectable in vitro only if the medium is completely deprived of FA (See, e.g., Sobrero & Bertino, Int. J. Cell Cloning 4, 51 (1986)). The effect of the trifunctional dendrimers on cell growth was tested in cells incubated in a FA-deficient medium. Cells were treated with 300 nM conjugates (equivalent of 1500 nM MTX) or 1500 nM free MTX for 1-4 days, and cell proliferation was determined by estimation of cellular protein content. Cells were treated for 2 days with different concentrations of the conjugates or free MTX (the conjugate concentration is given as MTX equivalents, with 5 MTX per dendrimer molecule). KB cells which express high and low FAR were incubated with 30 nM of the dendrimers for 1 hr at 37° C., rinsed, and the fluorescence of cells was determined by flow cytometric analysis (See. e.g., FIG. 21, left panel).
KB cells were treated with 150 or 500 nM MTX in the presence or absence of equimolar concentrations of free FA for 24 h. […] The cells were rinsed to remove the drugs and incubated with fresh medium for an additional 6 d, and total cell protein was determined.

[3] = tested on: s.c. human KB xenografts; test: Targeted drug delivery, tumor growth and survival in SCID mice with KB xenografts; assay type: in vivo, SCID CB-17 mice
Procedure: Recipient animal and tumor model.
Delivery of targeted nanoparticle therapeutic. Twice weekly, SCID mice with s.c. KB xenografts, starting on day 4 after tumor implantation, received via the tail vein an injection of either targeted or nontargeted conjugate containing methotrexate, a conjugate without methotrexate, free methotrexate, or saline as a control. The compounds were delivered in a 0.2 mL volume of saline per 20 g of mouse. The single dose of methotrexate delivered each time equaled 0.33 mg/kg. The higher doses of 1.67 and 3.33 mg/kg free methotrexate were also tested. The conjugates were delivered at equimolar concentration of methotrexate calculated based on the number of methotrexate molecules present in a nanoparticle. The conjugate without methotrexate was delivered at equimolar concentration of dendrimer. In the initial trial, six groups of mice with five mice in each group received up to 15 injections. In the follow-up trial, mice received up to 28 injections dependent on their survival. The body weights of the mice were monitored throughout the experiment as an indication of adverse effects of the drug. Histopathology of multiple organs was done at the termination of each trial and each time mouse had to be euthanized due to toxic effects or tumor burden. Tissues from lung, heart, liver, pancreas, spleen, kidney, and tumor were analyzed. Additionally, cells were isolated from tumors, stained with targeted fluorescein-labeled conjugate, and tested for the presence of folic acid receptors using flow cytometer.
Targeted drug delivery to tumor cells through the folate receptor. The efficacy of different doses of conjugates was tested on SCID CB-17 mice bearing s.c. human KB xenografts and was compared with equivalent and higher doses of free methotrexate. Mice were maintained on the folic acid-deficient diet for 3 weeks before injection of the KB tumor cells to achieve circulating levels of folic acid that approach those in human serum and to prevent down-regulation of folate receptors on tumor xenografts (See, Mathias et al., J Nucl Med 29, 1579 (1998)). Six groups of SCID mice with five mice in each group were injected s.c. on one flank with 5×10^6 KB cells in 0.2 mL PBS suspension. The highest total dose of G5-FI-FA-MTX therapeutic used equals 55.0 mg/kg and is equivalent to a 5.0 mg/kg total cumulative dose of free methotrexate (FIG. 29). The therapeutic dose of the conjugate was compared with three cumulative doses of free methotrexate equivalent to 33.3, 21.7, and 5.0 mg/kg accumulated in 10 to 15 injections based on mouse survival. Saline and the conjugate without methotrexate (G5-FI-FA) were used as controls.

## G5-(Ac)82-(FITC)5-(FA)5-MTX5 [G5-FITC-FA-MTX]
[1]; 1, 2 or 3 days
  inhibition of cell growth, XTT: time-dependent cytotoxicity
[1]; pre-incubated 4 h, XTT assay
  decrease in cell growth: about 10%
[1]; pre-incubation 1 h, then drug-free medium 5 d
  growth-inhibitory effect: failed to show any growth-inhibitory effect
[2]; 30 and 100 nM conjugate (150 and 500 nM MTX), 24 h then 6 d
  cytotoxicity compared with equimolar combinations of free FA and MTX: similar
[2]; FA-deficient medium, 1-4 days, different concentrations
  inhibition of cell growth (FIGS. 21 and 22): inhibited cell growth in a time- and dose-dependent fashion
[3]; first trial, up to 15 injections, cumulative 5.0 mg/kg methotrexate equivalents or equimolar dendrimer
  effect on tumor growth: as equally effective as the second highest dose of free methotrexate
[3]; second 99-day trial
  survivors at the termination of the trial: two (of eight)
[3]; second 99-day trial, P<0.05
  tumor growth versus G5-FI-MTX, free methotrexate or saline: slower growth of tumors
